Laboratory results taken from patent US7595176B2, “Methods and reagents for quantitative analysis of Dehalococcoides species” (Georgia Tech Research Corporation, priority 2003, dated 2009).

What was measured:
[1] = 25° C.; Gossett 1987; cited from earlier work
[2] = tested on: VC-dechlorinating Dehalococcoides population in the Bachman culture; assay: Reductive dechlorination kinetics of chloroethenes in the VC-dechlorinating Bachman enrichment culture; assay type: cell-based, Dehalococcoides sp.; settings: for Dechlorination by the culture after prolonged enrichment with VC: chloroethene added alone, without DCEs or VC; for Ks (half-velocity coefficient) / kX (maximum aqueous dechlorination rate): pyruvate-fed cultures, Monod equation, nonlinear regression
Experimental: All experiments were carried out in serum bottles (160 ml nominal volume) containing 100 ml (final volume) of growth medium, which were sealed with black butyl rubber septa (Wheaton, Ochelata, Okla.). Anoxic, bicarbonate-buffered mineral salts medium was prepared, and was amended with pyruvate (10 mM), lactate (5 mM or 10 mM), acetate plus formate (5 mM each), or acetate (5 mM) as substrates. Löffler et al., Appl. Environ. Microbiol., 1997, 63:4982-4985. Unless indicated otherwise, H2 was only added to acetate-fed cultures at a partial pressure of 9 kPa. Routinely, L-cysteine and Na2S×9 H2O (0.2 mM each) were used to chemically reduce the medium. DL-dithiothreitol (DTT) was tested at 0.5 mM concentration. Titanium(III) (0.5 mM) was added from a filter-sterilized citrate solution after the medium had been autoclaved. Löffler et al., Appl. Environ. Microbial., 1996, 62:3809-3813; Zehnder et al., Science, 1976, 194:1165-1166. Gaseous VC was added as a single dose of 1 to 6 ml per serum bottle resulting in initial aqueous concentrations ranging from 0.27 to 1.6 mM. Other chloroethenes were added using Hamilton glass syringes (Hamilton, Reno, Nev.) to initial aqueous concentrations ranging from 0.2 to 0.5 mM. Biogenic cis-DCE was produced from PCE (0.5 mM) using a culture of ‘Desulfuromonas michiganensis’.
After complete dechlorination to cis-DCE (0.5 mM), the cultures were amended with pyruvate and inoculated with the VC-dechlorinating culture. New cultures were routinely seeded with a 2% (vol/vol) inoculum using plastic syringes. To minimize the contact of the inoculum with air present in the plastic of the syringes during transfers, the syringes were reduced with a sterile 0.5 mM aqueous sulfide solution for 5-10 min prior to transfers. Gaseous substrates were added with plastic syringes that had been previously flushed with H2- and O2-free N2.
All experiments were set up in triplicates, and all results were verified by at least one additional independent experiment. Culture bottles were incubated upside down at room temperature (22-25° C.) without agitation in the dark, unless indicated otherwise. Duplicate controls (no inoculum or autoclaved inoculum) accompanied each experiment. Ethene formation strictly depended on a viable inoculum, and loss of VC through the septum was negligible.
Chloroethenes were measured with a Hewlett Packard model 6890 gas chromatograph equipped with a HP-624 column (60 m length, 0.32 mm diameter, 1.8 μm film thickness) and a flame ionization detector (FID). Headspace samples of 100 μl were withdrawn with gas-tight 250 μl Hamilton glass syringes with Teflon-lined valves (model # 1725), and manually injected into a split injector operated at a split ratio of 2:1. All syringes were flushed with H2- and O2-free N2 gas to prevent contamination of the cultures with these gases. A temperature program that allowed the simultaneous analysis of all chloroethenes and ethene was described previously. He et al., Environ. Sci. Technol., 2002, 36: 3945-3952. Standards were prepared as described and 7-point calibration curves were established for all chloroethenes and ethene at room temperature. Gossett, Environ. Sci. Technol., 1987, 21: 202-208. The instrument detection limits for VC and ethene were 7.3 and 8.6 μM, respectively. For quantification of VC and ethene at different temperatures, concentrations of each compound were determined from 3-point calibration curves.
[formula] was used to describe the substrate reaction kinetics, where S is the chloroethene concentration, KS is the half-saturation coefficient, k is the maximum chloroethene dechlorination rate per unit of biomass, and X is the dechlorinating biomass concentration. It was assumed that Xlag was zero during the lag period due to the small inoculum transferred, and X remained constant during the phase of active dechlorination due to slow growth of the dechlorinating population(s). […]

Structure (SMILES) | Dimensionless Henry coefficient [1] | Ks (half-velocity coefficient) [2] | kX (maximum aqueous dechlorination rate) [2] | other results
C=C(Cl)Cl [1,1-DCE] | 1.069 |  |  | 
ClC(Cl)=C(Cl)Cl [PCE, Perchloroethene] |  |  |  | Dechlorination by the culture after prolonged enrichment with VC [2]: failed to dechlorinate
ClC=C(Cl)Cl [TCE, trichloroethene] |  |  |  | Dechlorination by the culture after prolonged enrichment with VC [2]: failed to dechlorinate
C=CCl [VC, vinyl chloride] | 1.137 | 5.8 ± 0.4 µM | 54.4 ± 3.5 μMday^−1 | VC dechlorination rate ([2]; acetate-enriched cultures): 2.4 ± 0.5 µmol/L/day
CC1(C)S[C@@H]2[C@H](NC(=O)[C@H](N)c3ccccc3)C(=O)N2[C@H]1C(=O)O [ampicillin, reference compound] |  |  |  | Effect on dechlorination rates of DCEs and VC to ethene ([2]; compared with cultures without the antibiotic): about one third less
Cl/C=C\Cl [cis-DCE] | 0.167 | 8.9 ± 0.4 µM | 23.1 ± 0.8 μMday^−1 | 
Cl/C=C/Cl [trans-DCE] | 0.384 | 8.5 ± 0.3 µM | 26.2 ± 0.7 μMday^−1 | 
